Measured values taken from patent US12378252B2, “Pyrrolopyrazole derivatives, preparation method thereof and application thereof in medicine” (SHANGHAI MEDICILON INC., priority 2019, dated 2025).
Where a name gives a salt, the structure may show the parent alone.

Biological target: T1, H+/K+ ATPase (Oryctolagus cuniculus, UniProt P27112)
T1 construct: The stomach tissue of the rabbit was separated; from tissue; host or cells: rabbit stomach (fundus) mucosa, membrane fraction obtained by differential and Ficoll centrifugation
Assay: determination of compounds' inhibition of H+/K+ ATPase enzyme activity (malachite green, OD 620 nm)
Type: biochemical
Conditions: enzyme extracted from rabbit stomach tissue; pH 6.5; ATP 500 μM; 37° C.
From the text: Test example: determination of compounds' inhibition of H^+/K+ATPase enzyme activity
The following experiment is used to determine the inhibitory effect of the compound of the present invention on the H^+/K+ATPase enzyme activity.
1. Experimental materials
Plate reader: SpectraMax M5 (MD)
Malachite Green (Sigma Aldrich, 213020-25G)
Ammonium molybdate (Sigma Aldrich, 277908-20G)
ATP (Sigma Aldrich, A1852-1VL).
Enzyme working solution: titrating the enzyme, diluting the enzyme with buffer 1, and during the reaction, taking 5 μl of the diluted solution into 50 μl reaction system.
ATP solution: 100 mM ATP was diluted to 5 mM with no K+buffer, and 5 μl of the diluted solution was added to the 50 μl reaction system, that is, the final concentration of ATP was 500 μM.
MLG color development liquid: 0.12% MLG, 7.5% ammonium molybdate, and […] Tween-20 was mixed as 100:25:2, and adding 15 μl of the mixture into each well during detection.
Buffer 1: 50 mM Tris-HCl pH 6.5, 5 mM magnesium chloride (magnesium chloride), 10 μM valinomycin (valinomycin).
Buffer 2: 50 mM Tris-HCl pH 6.5, 5 mM magnesium chloride (magnesium chloride), 10 μM valinomycin (valinomycin), 20 mM KCl.
Homogenization buffer: 10 mmol/L Tris-HCl, pH 6.8, 0.25M sucrose (sucrose), 1 mmol/LEDTA. 7.5% Ficoll layering solution: homogenization buffer+7.5% (W/W) 400 (Ficoll 400).
3.1. H^+/K^+ ATPase enzyme extraction
(1) The stomach tissue of the rabbit was separated, and the blood was washed with tap water, food residue.
(2) The fundus portion was thoroughly washed with pre-cooled NaCl solution to remove surface mucus.
(3) The stripped mucosa was filled into a sample bag or a 50 ml centrifuge tube, and quickly freezing in a liquid nitrogen tank.
(4) The tissue was removed, minced with surgical scissors, and a pre-cooled homogenization buffer (4 ml/g tissue) was added and homogenized in a tissue homogenizer for 2 to 10 minutes.
(5) After homogenization, if there were larger tissue particles, they could be removed by centrifugation (600 g, 10 min), and then the supernatant was transferred to a clean centrifuge tube. After centrifugation at 20000 g for 30 minutes, then the supernatant was transferred to a clean centrifuge tube at 100000 g for 90 minutes and the precipitate was collected.
(6) Resuspending the precipitate with homogenization buffer, blowing uniformly, adding 7.5% Ficoll layering solution at equal ratio, centrifuging at 100000 g for 90 minutes, and collecting the precipitate.
(7) Resuspending the precipitate with homogenization buffer, blowing uniformly, and the protein concentration was measured by Bradford. Freezing in tubes at −80° C. for later use.
3.2. H^+/K^+ ATPase activity experiment
(1) Adding 35 μl of reaction buffer to each experimental well, and then added 35 μl of buffer 1.
(2) Adding 5 μl buffer 1 containing 10% DMSO to the whole enzyme and buffer well.
(3) Adding 5 μl of 10× compound working solution to the compound well and mixing well.
(4) Adding 5 of buffer 1 to the buffer well.
(5) Adding 5 μl of 10× enzyme working solution to the remaining wells, mixing and incubating at 37° C. for 30 minutes.
(6) Adding 5 μl of 10XATP working solution to all experimental wells, and incubating at 37° C. for 20 min.
(7) Adding 15 μl MLG chromogenic solution to all experimental wells, and uniformly mixing and incubating at room temperature for 5-30 min.
(8) The reading number of 620 nm was detected by an M5 instrument.
The inhibition rate is calculated with the following formula: Inhibition rate (IC50)=[OD (sample well)−OD (full enzyme well containing potassium chloride)]/[(OD (full enzyme well containing potassium chloride)−(OD (full enzyme well without potassium chloride Enzyme hole)]×100%

T1 sequence (P27112 whole entry): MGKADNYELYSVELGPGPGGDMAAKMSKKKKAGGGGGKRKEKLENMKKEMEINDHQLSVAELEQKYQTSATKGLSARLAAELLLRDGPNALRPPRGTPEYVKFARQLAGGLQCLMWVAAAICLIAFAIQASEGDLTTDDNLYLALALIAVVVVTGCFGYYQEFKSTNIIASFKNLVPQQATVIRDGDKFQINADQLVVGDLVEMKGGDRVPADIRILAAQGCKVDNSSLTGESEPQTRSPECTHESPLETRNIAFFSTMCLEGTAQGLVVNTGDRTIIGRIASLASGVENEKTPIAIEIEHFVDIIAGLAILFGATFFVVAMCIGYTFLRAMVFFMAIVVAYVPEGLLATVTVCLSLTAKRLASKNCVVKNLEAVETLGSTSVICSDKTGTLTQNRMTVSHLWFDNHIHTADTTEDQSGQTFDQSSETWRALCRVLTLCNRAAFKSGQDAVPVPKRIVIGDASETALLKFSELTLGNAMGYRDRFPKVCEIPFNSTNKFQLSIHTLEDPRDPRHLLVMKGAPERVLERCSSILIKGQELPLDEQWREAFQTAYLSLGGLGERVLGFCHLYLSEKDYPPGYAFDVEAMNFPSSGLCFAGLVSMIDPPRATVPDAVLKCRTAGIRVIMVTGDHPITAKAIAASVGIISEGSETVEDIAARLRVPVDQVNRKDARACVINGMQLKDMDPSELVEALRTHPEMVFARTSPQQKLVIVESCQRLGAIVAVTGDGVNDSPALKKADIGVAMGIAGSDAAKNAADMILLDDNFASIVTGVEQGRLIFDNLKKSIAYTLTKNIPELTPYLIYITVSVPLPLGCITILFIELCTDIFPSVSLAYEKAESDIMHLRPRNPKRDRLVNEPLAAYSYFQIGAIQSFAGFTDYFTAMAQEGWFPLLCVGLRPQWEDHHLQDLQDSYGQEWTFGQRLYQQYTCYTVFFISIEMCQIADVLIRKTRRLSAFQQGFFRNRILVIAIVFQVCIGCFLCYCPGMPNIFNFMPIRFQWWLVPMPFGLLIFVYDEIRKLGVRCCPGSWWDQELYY
T1 sequence (P18597 whole entry partner): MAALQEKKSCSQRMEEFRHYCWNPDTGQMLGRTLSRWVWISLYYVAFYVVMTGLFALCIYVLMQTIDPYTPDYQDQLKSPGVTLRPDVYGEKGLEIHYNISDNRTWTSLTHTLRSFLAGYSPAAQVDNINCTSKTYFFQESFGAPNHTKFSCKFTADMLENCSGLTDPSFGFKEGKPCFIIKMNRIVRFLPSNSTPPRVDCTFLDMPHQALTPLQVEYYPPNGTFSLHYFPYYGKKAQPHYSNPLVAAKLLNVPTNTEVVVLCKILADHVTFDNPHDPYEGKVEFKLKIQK

Row | IC50 | Structure (SMILES)
1 | 77.6 nM | COC(=O)c1cccc(Cn2nc3c(c2-c2ccccc2F)CN(C)C3)c1 [Example 1, 3-((3-(2-fluorophenyl)-5-methyl-5,6-dihydropyrrolo[3,4-c]pyrazole-2(4H)-yl)methyl)benzoic acid ester]
2 | 96.8 nM | CCCCOC(=O)c1cccc(Cn2nc3c(c2-c2ccccc2F)CN(C)C3)c1 [Example 2, 3-((3-(2-fluorophenyl)-5-methyl-5,6-dihydropyrrolo [3,4-c]pyrazole-2(4H)-yl)methyl)butyl benzoate]
3 | 90.4 nM | CCOC(=O)c1cccc(Cn2nc3c(c2-c2ccccc2F)CN(C)C3)c1 [Example 3, 3-((3-(2-fluorophenyl)-5-methyl-5,6-dihydropyrrolo[3,4-c]pyrazole-2(4H)-yl)methyl) ethyl benzoate]
4 | 539 nM | CN1Cc2nn(Cc3cccc(C(=O)NC4CC4)c3)c(-c3ccccc3F)c2C1 [Example 4, N-cyclopropyl-3-((3-(2-fluorophenyl)-5-methyl-5,6-dihydropyrrolo[3,4-c]pyrazole-2(4H)-Yl)methyl)benzamide]
5 | 225 nM | CN1Cc2nn(Cc3cccc(C(=O)OC(C)(C)C(N)=O)c3)c(-c3ccccc3F)c2C1 [Example 5, 1-amino-2-methyl-1-oxopropan-2-yl-3-((3-(2-fluorophenyl)-5-methyl-5,6-dihydropyrrolo [3,4-c]pyrazole-2(4H)-yl)methyl)benzoate]
6 | 36.6 nM | COC(=O)c1cccc(Cn2nc3c(c2-c2ccccc2C)CN(C)C3)c1 [Example 6, 3-((5-methyl-3-(o-tolyl)-5,6-dihydropyrrolo[3,4-c]pyrazole-2(4H)-yl)methyl) Methyl benzoate]
7 | 39 nM | COC(=O)c1cc(Cn2nc3c(c2-c2ccccc2C)CN(C)C3)ccc1F [Example 7, 2-Fluoro-5-((5-methyl-3-(o-tolyl)-5,6-dihydropyrrole [3,4-c]pyrazole-2 (4H)-yl)methane Yl) methyl benzoate]
8 | 589 nM | Cc1ccccc1-c1c2c(nn1Cc1cccc(C(=O)OC(C)(C)C)c1)CN(C)C2 [Example 8, 3-((5-Methyl-3-(o-tolyl)-5,6-dihydropyrrolo[3,4-c]pyrazole-2(4H)-yl)methyl) benzene Tert-butyl formate]
9 | 61.4 nM | COC(=O)c1cccc(Cn2nc3c(c2-c2ccc(F)cc2F)CN(C)C3)c1 [Example 9, 3-((3-(2,4-Difluorophenyl)-5-methyl-5,6-dihydropyrrolo [3,4-c]pyrazole-2(4H)-yl) Methyl) methyl benzoate]
